Source: the supplement of paper PMC9663587

Tests used:
[1] = compound: CCc1cnn2c(NCc3ccc[n+]([O-])c3)cc(N3CCCC[C@H]3CCO)nc12; experiment: GR value, 72 h; higher = faster growth (1 = untreated, <0 = killing);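 further: breast cancer and non-malignant breast epithelial lines, nine half-log doses, viable cells counted by Hoechst and LIVE/DEAD dye imaging versus time-zero plates and DMSO controls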
LEE011/Ribociclib = compound: CN(C)C(=O)c1cc2cnc(Nc3ccc(N4CCNCC4)cn3)nc2n1C1CCCC1 [LEE011/Ribociclib]; experiment: as above
THZ1 = compound: CN(C)C/C=C/C(=O)Nc1ccc(C(=O)Nc2cccc(Nc3ncc(Cl)c(-c4c[nH]c5ccccc45)n3)c2)cc1 [THZ1]; experiment: as above
[2] = compound: CCN1CCN(Cc2ccc(Nc3ncc(F)c(-c4cc(F)c5nc(C)n(C(C)C)c5c4)n3)nc2)CC1; experiment: as above
[3] = compound: CC(=O)c1c(C)c2cnc(Nc3ccc(N4CCNCC4)cn3)nc2n(C2CCCC2)c1=O; experiment: as above
YKL-5-124 = compound: C=CC(=O)Nc1ccc(C(=O)Nc2[nH]nc3c2CN(C(=O)N[C@H](CN(C)C)c2ccccc2)C3(C)C)cc1 [YKL-5-124]; experiment: as above
THZ531 [4] = compound: T1, CN(C)C/C=C/C(=O)Nc1ccc(C(=O)N2CCC[C@@H](Nc3ncc(Cl)c(-c4c[nH]c5ccccc45)n3)C2)cc1 [THZ531]; experiment: as above
BSJ-03-123 = compound: CC(=O)c1c(C)c2cnc(Nc3ccc(N4CCN(CCOCCOCCOCCNC(=O)COc5cccc6c5C(=O)N(C5CCC(=O)NC5=O)C6=O)CC4)cn3)nc2n(C2CCCC2)c1=O [BSJ-03-123]; experiment: as above
Ceritinib/LDK378 = compound: Cc1cc(Nc2ncc(Cl)c(Nc3ccccc3S(=O)(=O)C(C)C)n2)c(OC(C)C)cc1C1CCNCC1 [Ceritinib/LDK378]
AZD6738 = compound: C[C@@H]1COCCN1c1cc(C2([S@](C)(=N)=O)CC2)nc(-c2cc[nH]c3nccc2-3)n1 [AZD6738]
BSJ-01-175 = compound: CN(C)C/C=C/C(=O)Nc1ccc(O[C@@H]2CCC[C@@H](Nc3ncc(Cl)c(-c4c[nH]c5ccccc45)n3)C2)cc1 [BSJ-01-175]
Tivantinib/ARQ197 = compound: O=C1NC(=O)[C@@H](c2cn3c4c(cccc24)CCC3)[C@@H]1c1c[nH]c2ccccc12 [Tivantinib/ARQ197]
senexin b = compound: CN1CCN(C(=O)c2ccc3cc(CCNc4ncnc5ccc(C#N)cc45)ccc3c2)CC1 [senexin b]
Paclitaxel = compound: CC(=O)O[C@H]1C(=O)[C@@]2(C)[C@H]([C@H](OC(=O)c3ccccc3)[C@]3(O)C[C@H](OC(=O)[C@H](O)[C@@H](NC(=O)c4ccccc4)c4ccccc4)C(C)=C1C3(C)C)[C@]1(OC(C)=O)CO[C@@H]1C[C@@H]2O [Paclitaxel]
Rucaparib = compound: CNCc1ccc(-c2[nH]c3cc(F)cc4c3c2CCNC4=O)cc1 [Rucaparib]
Pictilisib/GDC0941 = compound: CS(=O)(=O)N1CCN(Cc2cc3nc(-c4cccc5[nH]ncc45)nc(N4CCOCC4)c3s2)CC1 [Pictilisib/GDC0941]
Cediranib/AZD2171 = compound: COc1cc2c(Oc3ccc4[nH]c(C)cc4c3F)ncnc2cc1OCCCN1CCCC1 [Cediranib/AZD2171]
THZ531 [5] = compound: T1, THZ531
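Wherever GR50, 72 h is given: breast cancer and non-malignant breast epithelial cell lines, Deep Dye Drop or Dye Drop imaging, nine half-log doses, GR normalized to time-zero plates and DMSO-only controls.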

ZR7530 gave a GR value ([1]; 0.0001 µM) of 0.895 GR, a GR value ([1]; 0.0003162 µM) of 0.995 GR and a GR value ([1]; 0.001 µM) of 1.06 GR. The GR value ([1]; 0.003162 µM) was 0.953 GR, the GR value ([1]; 0.01 µM) was 0.909 GR and the GR value ([1]; 0.03162 µM) was -0.42 GR. For the same cell line, the GR value ([1]; 0.1 µM) was -0.601 GR, the GR value ([1]; 0.3162 µM) was -0.696 GR and the GR value ([1]; 1 µM) was -0.728 GR. For the same cell line, the GR value (LEE011/Ribociclib; 0.001 µM) was 0.854 GR, the GR value (LEE011/Ribociclib; 0.003162 µM) was 0.695 GR and the GR value (LEE011/Ribociclib; 0.01 µM) was 0.687 GR. The GR value (LEE011/Ribociclib; 0.03162 µM) was 0.857 GR, the GR value (LEE011/Ribociclib; 0.1 µM) was 0.607 GR and the GR value (LEE011/Ribociclib; 0.3162 µM) was 0.463 GR. It also gave a GR value (LEE011/Ribociclib; 1 µM) of 0.434 GR, a GR value (LEE011/Ribociclib; 3.162 µM) of 0.443 GR and a GR value (LEE011/Ribociclib; 10 µM) of 0.41 GR. For the same cell line, the GR value (THZ1; 0.0001 µM) was 0.924 GR, the GR value (THZ1; 0.0003162 µM) was 1.19 GR and the GR value (THZ1; 0.001 µM) was 1.07 GR. For the same cell line, the GR value (THZ1; 0.003162 µM) was 0.851 GR, the GR value (THZ1; 0.01 µM) was 0.985 GR and the GR value (THZ1; 0.03162 µM) was 0.289 GR. For the same cell line, the GR value (THZ1; 0.1 µM) was -0.492 GR, the GR value (THZ1; 0.3162 µM) was -0.524 GR and the GR value (THZ1; 1 µM) was -0.638 GR. For the same cell line, the GR value ([2]; 0.001 µM) was 1.05 GR, the GR value ([2]; 0.003162 µM) was 1.03 GR and the GR value ([2]; 0.01 µM) was 0.769 GR. It also gave a GR value ([2]; 0.03162 µM) of 0.57 GR, a GR value ([2]; 0.1 µM) of 0.322 GR and a GR value ([2]; 0.3162 µM) of 0.276 GR. It also gave a GR value ([2]; 1 µM) of 0.282 GR, a GR value ([2]; 3.162 µM) of 0.229 GR and a GR value ([2]; 10 µM) of 0.127 GR. The GR value ([3]; 0.0003162 µM) was 1.08 GR, the GR value ([3]; 0.001 µM) was 1.08 GR and the GR value ([3]; 0.003162 µM) was 1.06 GR. The GR value ([3]; 0.01 µM) was 0.858 GR, the GR value ([3]; 0.03162 µM) was 0.665 GR and the GR value ([3]; 0.1 µM) was 0.482 GR. The GR value ([3]; 0.3162 µM) was 0.321 GR, the GR value ([3]; 1 µM) was 0.451 GR and the GR value ([3]; 3.162 µM) was 0.253 GR. The GR value (YKL-5-124; 0.001 µM) was 0.344 GR, the GR value (YKL-5-124; 0.003162 µM) was 0.254 GR and the GR value (YKL-5-124; 0.01 µM) was 0.245 GR. It also gave a GR value (YKL-5-124; 0.03162 µM) of 0.309 GR, a GR value (YKL-5-124; 0.1 µM) of 0.197 GR and a GR value (YKL-5-124; 0.3162 µM) of 0.138 GR. For the same cell line, the GR value (YKL-5-124; 1 µM) was 0.176 GR, the GR value (YKL-5-124; 3.162 µM) was 0.177 GR and the GR value (YKL-5-124; 10 µM) was -0.625 GR. For the same cell line, the GR value (THZ531 [4]; 0.0001 µM) was 0.959 GR, the GR value (THZ531 [4]; 0.0003162 µM) was 1.15 GR and the GR value (THZ531 [4]; 0.001 µM) was 0.926 GR. The GR value (THZ531 [4]; 0.003162 µM) was 0.99 GR, the GR value (THZ531 [4]; 0.01 µM) was 1.02 GR and the GR value (THZ531 [4]; 0.03162 µM) was 0.98 GR. The GR value (THZ531 [4]; 0.1 µM) was -0.379 GR, the GR value (THZ531 [4]; 0.3162 µM) was -0.732 GR and the GR value (THZ531 [4]; 1 µM) was -0.42 GR. The GR value (BSJ-03-123; 0.001 µM) was 0.784 GR, the GR value (BSJ-03-123; 0.003162 µM) was 0.857 GR and the GR value (BSJ-03-123; 0.01 µM) was 0.824 GR. The GR value (BSJ-03-123; 0.03162 µM) was 0.72 GR, the GR value (BSJ-03-123; 0.1 µM) was 0.835 GR and the GR value (BSJ-03-123; 0.3162 µM) was 0.615 GR. For the same cell line, the GR value (BSJ-03-123; 1 µM) was 0.398 GR, the GR value (BSJ-03-123; 3.162 µM) was 0.395 GR and the GR value (BSJ-03-123; 10 µM) was -0.258 GR. For the same cell line, the “GR50, 72 h” value (Ceritinib/LDK378) was 1.75 µM, the “GR50, 72 h” value (AZD6738) was over 10 µM and the “GR50, 72 h” value (BSJ-01-175) was 0.0237 µM. The “GR50, 72 h” value (Tivantinib/ARQ197) was 0.554 µM, the “GR50, 72 h” value (senexin b) was 1.48 µM and the “GR50, 72 h” value (Paclitaxel) was 0.00474 µM. For the same cell line, the “GR50, 72 h” value (Rucaparib) was over 10 µM, the “GR50, 72 h” value (Pictilisib/GDC0941) was 0.217 µM and the “GR50, 72 h” value (Cediranib/AZD2171) was 7.57 µM. For the same cell line, the “GR50, 72 h” value (THZ531 [5]) was 0.0583 µM.
